Test [1] relates to ApoA1 (apolipoprotein A1). Kind of test: Effect on SREBP-1c target genes in HepG2 cells, real time PCR: ApoA1. Type of test: cell-based. The following applies: HepG2 cells stimulated with oleate, 50 μM, 6 hours, normalized to 18S; FIG. 2. How it is done: (§1) HepG2 cells (ATCC) were seeded at 20,000 cells per well in 96 well plates. After adhering overnight, growth media (1.0% FBS in DMEM) was removed and cells were serum starved for 24 hours in DMEM containing 1% fatty acid free bovine serum albumin (BSA, Sigma). […] Cells were incubated for 6 hours and then washed with PBS. RNA was reverse-transcribed using the cells to cDNA reagents according to standard protocols (outlined in Applied Biosystem StepOne Real-time PCR protocols). Real time PCR of transcripts was performed with Taqman assays for the three specific genes FASN (fatty acid synthase), SCD (steroyl CoA desaturase) and ApoA1 (apolipoprotein A1). In all three cases, 18S-VIC® was used as a normalization control.

Test [2] relates to SCD (steroyl CoA desaturase). Kind of test: Effect on SREBP-1c target genes in HepG2 cells, real time PCR: SCD. The following applies: HepG2 cells stimulated with oleate, 50 μM, 6 hours, normalized to 18S; FIG. 2. Type of test: cell-based. How it is done:
as §1
(In qPCR the cycle at which signal appears reflects the starting amount.)

For test [3], the system named is FASN (fatty acid synthase). Nature of the test: Effect on SREBP-1c target genes in HepG2 cells, real time PCR: FASN. It counts as cell-based. The following applies: HepG2 cells stimulated with oleate, 50 μM, 6 hours, normalized to 18S; FIG. 2. How it is done:
as §1

Test [4] concerns ApoB secretion in HepG2 cells. The settings on record: 3 concentrations (50, 100 and 200 μM), compared to niacin at 5 mM, FIG. 1.
Method: HepG2 cells (ATCC) are seeded at 10,000 cells per well in 96 well plates. After adhering overnight, growth media (10% FBS in DMEM) is removed and cells are serum starved for 24 hours in DMEM containing 0.1% fatty acid free bovine serum albumin (BSA, Sigma). Cells are then treated with a compound. Niacin at 5 mM is used as a positive control. All treatments are performed in triplicate. Simultaneous with compound treatment, ApoB secretion is stimulated with addition of 0.1 oleate complexed to fatty acid free BSA in a 5:1 molar ratio. Incubation with a compound and oleate is conducted for 24 hours. Media supernatants are removed and ApoB concentrations are measured using ELISA kits (Mabtech AB). Percent inhibition of ApoB secretion is determined by normalizing data to vehicle treated wells. For a given compound, an IC50 (concentration at which 50% of ApoB secretion is inhibited) can also be determined by using a 4 parameter-fit inhibition curve model (Graph Pad Prism®). In each experiment, cell viability is determined using the ATPlite 1-Step kit (Perkin Elmer), such that compound effects due to cytotoxicity can be monitored.
The level of ApoB secretion was compared to that of niacin, evaluated at 5 mM concentration.

Regarding `CC/C=C\C/C=C\C/C=C\C/C=C\C/C=C\C/C=C\CCC(=O)NCCNC(=O)c1cccnc1` [I-7, N-(2-(4Z,7Z,10Z,13Z,16Z,19Z)-docosa-4,7,10,13,16,19-hexaenamidoethyl)nicotinamide], the ApoA1 gene expression entry in test [1] is listed as “increase”. Also, the SCD gene expression entry in test [2] was “statistically significant inhibition”. Further, in test [3], the FASN gene expression entry was “statistically significant inhibition”. Also, in test [4], the “inhibition of ApoB secretion” value is listed as “significant inhibition”.

As for `CC/C=C\C/C=C\C/C=C\C/C=C\C/C=C\CCCC(=O)NCCNC(=O)c1cccnc1` [I-8, N-(2-(5Z,8Z,11Z,14Z,17Z)-eicosa-5,8,11,14,17-pentaenamidoethyl)nicotinamide], the ApoA1 gene expression entry in test [1] was “increase”. For the same molecule, the SCD gene expression result in test [2] was “statistically significant inhibition”. Also, the FASN gene expression result in test [3] is listed as “statistically significant inhibition”.

The values above are taken from patent publication US9486534B2, “Niacin conjugated fatty acid mixtures and their uses” (Catabasis Pharmaceuticals, Inc., priority 2009, dated 2016).
